Common to all, as to format: biochemical
The target in assay [1] is T1, FAAH (Mus musculus, UniProt O08914).
T1 sequence (O08914 1-579): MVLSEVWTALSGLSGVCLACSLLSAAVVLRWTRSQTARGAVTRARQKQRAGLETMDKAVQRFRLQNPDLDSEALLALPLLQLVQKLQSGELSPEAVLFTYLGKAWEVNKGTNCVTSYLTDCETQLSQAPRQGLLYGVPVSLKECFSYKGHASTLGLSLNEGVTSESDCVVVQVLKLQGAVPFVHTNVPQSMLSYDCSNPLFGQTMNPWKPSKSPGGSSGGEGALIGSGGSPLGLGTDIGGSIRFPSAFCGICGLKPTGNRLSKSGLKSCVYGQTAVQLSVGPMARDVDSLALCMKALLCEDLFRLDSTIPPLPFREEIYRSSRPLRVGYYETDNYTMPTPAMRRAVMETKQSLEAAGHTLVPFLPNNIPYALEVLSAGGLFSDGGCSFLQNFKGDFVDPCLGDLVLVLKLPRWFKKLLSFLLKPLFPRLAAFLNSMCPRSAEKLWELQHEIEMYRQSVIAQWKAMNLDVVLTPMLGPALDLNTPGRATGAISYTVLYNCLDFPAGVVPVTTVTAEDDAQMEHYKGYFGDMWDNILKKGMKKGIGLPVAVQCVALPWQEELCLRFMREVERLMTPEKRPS
Briefly: In vitro competitive ABPP, % inhibition at fixed concentration, FAAH. Also noted: from tissue. The procedure:
(§1) In Vitro Competitive Activity-Based Protein Profiling.
(§2) Proteomes (mouse brain membrane fraction or cell lysates) (50 μL, 1.0 mg/ml total protein concentration) were preincubated with varying concentrations of inhibitors at 37° C. After 30 min, FP-Rh (1.0 μL, 50 μM in DMSO) was added and the mixture was incubated for another 30 min at 37° C. Reactions were quenched with SDS loading buffer (50 μL—4×) and run on SDS-PAGE. Following gel imaging, serine hydrolase activity was determined by measuring fluorescent intensity of gel bands corresponding to MAGL, ABHD6 and FAAH using ImageJ 1.43u software.

Assay [2] has as its target T2, ABHD6 (Mus musculus, UniProt Q8R2Y0).
T2 sequence (Q8R2Y0 1-336): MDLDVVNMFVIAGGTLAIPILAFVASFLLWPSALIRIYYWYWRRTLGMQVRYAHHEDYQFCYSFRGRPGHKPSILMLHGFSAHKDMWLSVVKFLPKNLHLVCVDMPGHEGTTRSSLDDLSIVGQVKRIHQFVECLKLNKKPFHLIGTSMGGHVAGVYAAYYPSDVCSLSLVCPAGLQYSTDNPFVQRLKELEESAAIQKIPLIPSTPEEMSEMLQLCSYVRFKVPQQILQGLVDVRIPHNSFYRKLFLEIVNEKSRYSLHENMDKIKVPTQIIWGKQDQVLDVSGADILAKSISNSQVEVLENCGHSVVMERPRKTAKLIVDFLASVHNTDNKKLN
Briefly: In vitro competitive ABPP, % inhibition at fixed concentration, ABHD6. Also noted: from tissue. The procedure:
as §1, §2

Assay [3] addresses T3, MAGL (Mus musculus, UniProt O35678).
T3 sequence (O35678 1-303): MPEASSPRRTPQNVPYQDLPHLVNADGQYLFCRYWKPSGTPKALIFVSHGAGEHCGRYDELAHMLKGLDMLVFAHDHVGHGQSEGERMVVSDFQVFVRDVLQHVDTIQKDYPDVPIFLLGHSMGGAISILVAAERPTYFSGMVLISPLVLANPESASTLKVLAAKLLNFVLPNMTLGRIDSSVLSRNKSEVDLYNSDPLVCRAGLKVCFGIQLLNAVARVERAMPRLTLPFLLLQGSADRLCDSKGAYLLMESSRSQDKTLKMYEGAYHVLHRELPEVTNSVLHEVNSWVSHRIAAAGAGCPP
Briefly: In vitro competitive ABPP, % inhibition at fixed concentration, MAGL. Also noted: from tissue. The procedure: as §1, §2

Assay [4] concerns the target T1, FAAH. Briefly: In vitro competitive activity-based protein profiling (FP-Rh), mouse FAAH. More on the design: from tissue; host or cells: mouse brain membrane fraction. To be noted: Table 2, mouse proteome, 30 min preincubation at 37° C. The procedure:
as §1
(§3) Proteomes (mouse brain membrane fraction or cell lysates) (50 μL, 1.0 mg/ml total protein concentration) were preincubated with varying concentrations of inhibitors at 37° C. After 30 min, FP-Rh (1.0 μL, 50 μM in DMSO) was added and the mixture was incubated for another 30 min at 37° C. Reactions were quenched with SDS loading buffer (50 μL—4×) and run on SDS-PAGE.

The target of assay [5] is T3, MAGL. Briefly: In vitro competitive activity-based protein profiling (FP-Rh), mouse MAGL. More on the design: from tissue; host or cells: mouse brain membrane fraction. The conditions noted are these: Table 2, mouse proteome, 30 min preincubation at 37° C. As to the method:
as §1, §3

Assay [6] has as its target T2, ABHD6. Briefly: In vitro competitive activity-based protein profiling (FP-Rh), mouse ABHD6. More on the design: from tissue; host or cells: mouse brain membrane fraction. To be noted: Table 2, mouse proteome, 30 min preincubation at 37° C. The procedure:
as §1, §3

A value given as a limit tells only on which side of the number the result lay.

By inhibition is commonly meant the relative decrease from the control value, in per cent. A lower inhibition goes with a weak effect. Usually IC50 stands for the midpoint of a concentration-inhibition curve. A low value points to higher potency.

As to `CC(=O)N1CCN(C(=O)ON2C(=O)CCC2=O)CC1` [Example 51, 2,5-Dioxopyrrolidin-1-yl 4-acetylpiperazine-1-carboxylate], the inhibition at 10 µM on FAAH [1], on ABHD6 [2] and on MAGL [3] was less than 25% in each case.

`O=C(ON1C(=O)CCC1=O)N1CCN(Cc2ccc(N3CCOCC3)cc2C(F)(F)F)CC1` [Example 76, 2,5-Dioxopyrrolidin-1-yl 4-{[4-(morpholin-4-yl)-2-(trifluoromethyl)phenyl]methyl}piperazine-1-carboxylate]: the inhibition at 1 µM was less than 25% at FAAH [1], 25 to 75% on ABHD6 [2] and 25 to 75% at MAGL [3].

Turning to `C[C@H]1CN(Cc2ccc(N3CCOCC3)cc2C(F)(F)F)CCN1C(=O)ON1C(=O)CCC1=O` [Example 77, 2,5-Dioxopyrrolidin-1-yl (2S)-2-methyl-4-{[4-(morpholin-4-yl)-2-(trifluoromethyl)phenyl]methyl}piperazine-1-carboxylate], the inhibition at 1 µM is less than 25% on FAAH [1], 25 to 75% at ABHD6 [2] and 25 to 75% at MAGL [3].

On to `C[C@@H]1CN(Cc2ccc(N3CCOCC3)cc2F)CCN1C(=O)ON1C(=O)CCC1=O` [Example 79, 2,5-Dioxopyrrolidin-1-yl (2R)-4-{[2-fluoro-4-(morpholin-4-yl)phenyl]methyl}-2-methylpiperazine-1-carboxylate], for which the inhibition at 1 µM on FAAH [1], on ABHD6 [2] and at MAGL [3] was less than 25% each time.

With `C[C@@H]1CN(Cc2ccc(N3CCOCC3)cc2C(F)(F)F)CCN1C(=O)ON1C(=O)CCC1=O` [Example 80, 2,5-Dioxopyrrolidin-1-yl (2R)-2-methyl-4-{[4-(morpholin-4-yl)-2-(trifluoromethyl)phenyl]methyl}piperazine-1-carboxylate], the inhibition at 1 µM on FAAH [1], at ABHD6 [2] and at MAGL [3] was less than 25% throughout.

Regarding `O=C(ON1C(=O)CCC1=O)N1CCN(Cc2c(Cl)cccc2N2CCOCC2)CC1` [Example 81, 2,5-Dioxopyrrolidin-1-yl 4-{[2-chloro-6-(morpholin-4-yl)phenyl]methyl}piperazine-1-carboxylate], the inhibition at 1 µM was less than 25% at FAAH [1], 25 to 75% at ABHD6 [2] and less than 25% at MAGL [3].

With `O=C1COc2ccc(CN3CCN(C(=O)ON4C(=O)CCC4=O)CC3)cc2N1` [Example 134, 2,5-Dioxopyrrolidin-1-yl 4-((3-oxo-3,4-dihydro-2H-benzo[b][1,4]oxazin-6-yl)methyl)piperazine-1-carboxylate], the half-inhibitory concentration (IC50) at FAAH [4] was more than 10000 nM; at MAGL [5], 1000 to 10000 nM; on ABHD6 [6], 1000 to 10000 nM.

With `Cc1nn(-c2ccccc2)cc1CN1CCN(C(=O)ON2C(=O)CCC2=O)CC1` [Example 138, 2,5-Dioxopyrrolidin-1-yl 4-((3-methyl-1-phenyl-1H-pyrazol-4-yl)methyl)piperazine-1-carboxylate], the IC50 on FAAH [4] fell in the range of 1000 to 10000 nM; on MAGL [5], 1000 to 10000 nM; on ABHD6 [6] it was 100 to 1000 nM.

`Cn1nc(-c2ccccc2)cc1CN1CCN(C(=O)ON2C(=O)CCC2=O)CC1` [Example 139, 2,5-dioxopyrrolidin-1-yl 4-((1-methyl-3-phenyl-1H-pyrazol-5-yl)methyl)piperazine-1-carboxylate]: the 50% inhibitory concentration (IC50) is more than 10000 nM on FAAH [4], 100 to 1000 nM at MAGL [5] and 100 to 1000 nM on ABHD6 [6].

For the compound `Cc1nc(-c2ccccc2)oc1CN1CCN(C(=O)ON2C(=O)CCC2=O)CC1` [Example 143, 2,5-Dioxopyrrolidin-1-yl 4-((4-methyl-2-phenyloxazol-5-yl)methyl)piperazine-1-carboxylate], the concentration for half-maximal inhibition (IC50) is more than 10000 nM on FAAH [4], 100 to 1000 nM at MAGL [5] and 1000 to 10000 nM on ABHD6 [6].

In the case of `Cc1nc2ccc(Cl)cn2c1CN1CCN(C(=O)ON2C(=O)CCC2=O)CC1` [Example 144], the half-maximal inhibitory concentration (IC50) is more than 10000 nM on FAAH [4], 1000 to 10000 nM on MAGL [5] and 100 to 1000 nM on ABHD6 [6].

On to `O=C(ON1C(=O)CCC1=O)N1CCN(Cc2cnc3ccc(Cl)cn23)CC1` [Example 145, 2,5-Dioxopyrrolidin-1-yl 4-((6-chloroimidazo[1,2-a]pyridin-3-yl)methyl)piperazine-1-carboxylate], for which the half-maximal inhibitory concentration (IC50) on FAAH [4] was more than 10000 nM; at MAGL [5], 1000 to 10000 nM; at ABHD6 [6], 1000 to 10000 nM.

On to `Cc1nc(N2CCCCC2)sc1CN1CCN(C(=O)ON2C(=O)CCC2=O)CC1` [Example 148, 2,5-Dioxopyrrolidin-1-yl 4-((4-methyl-2-(piperidin-1-yl)thiazol-5-yl)methyl)piperazine-1-carboxylate], for which the IC50 at FAAH [4] is more than 10000 nM; on MAGL [5] it was 1000 to 10000 nM; at ABHD6 [6], 1000 to 10000 nM.

Turning to `Cn1cc(CN2CCN(C(=O)ON3C(=O)CCC3=O)CC2)c(-c2ccccc2)n1` [Example 149, 2,5-Dioxopyrrolidin-1-yl 4-((1-methyl-3-phenyl-1H-pyrazol-4-yl)methyl)piperazine-1-carboxylate], the IC50 at FAAH [4] was more than 10000 nM; at MAGL [5] it was 1000 to 10000 nM; on ABHD6 [6] it was 1000 to 10000 nM.

As to `O=C(ON1C(=O)CCC1=O)N1CCN(C(c2cocn2)c2cocn2)CC1` [Example 152, 2,5-Dioxopyrrolidin-1-yl 4-(bis(oxazol-4-yl)methyl)piperazine-1-carboxylate], the IC50 on FAAH [4], on MAGL [5] and at ABHD6 [6] was 1000 to 10000 nM in each case.

With `Cc1cc(Cl)ccc1C(c1ccc(Cl)cc1C)N1CCN(C(=O)ON2C(=O)CCC2=O)CC1` [Example 153, 2,5-Dioxopyrrolidin-1-yl 4-(bis(4-chloro-2-methylphenyl)methyl)piperazine-1-carboxylate], the 50% inhibitory concentration (IC50) on FAAH [4] is more than 10000 nM; at MAGL [5], 100 to 1000 nM; on ABHD6 [6], 1000 to 10000 nM.

Consider `Cc1cc(-c2ccccc2)ccc1CN1CCN(C(=O)ON2C(=O)CCC2=O)CC1` [Example 165, 2,5-Dioxopyrrolidin-1-yl 4-[(2-methyl-4-phenylphenyl)methyl]piperazine-1-carboxylate], for which the IC50 lay within 1000 to 10000 nM on FAAH [4], 100 to 1000 nM on MAGL [5] and 100 to 1000 nM at ABHD6 [6].

In the case of `CC(C)c1cc(-c2ccccc2)ccc1CN1CCN(C(=O)ON2C(=O)CCC2=O)CC1` [Example 188, 2,5-Dioxopyrrolidin-1-yl 4-{[4-phenyl-2-(propan-2-yl)phenyl]methyl}piperazine-1-carboxylate], the half-maximal inhibitory concentration (IC50) was more than 10000 nM at FAAH [4], 100 to 1000 nM at MAGL [5] and 1000 to 10000 nM on ABHD6 [6].

Take `CN(C)C(=O)c1cc(-c2ccccc2)ccc1CN1CCN(C(=O)ON2C(=O)CCC2=O)CC1` [Example 189, 2,5-Dioxopyrrolidin-1-yl 4-{[2-(dimethylcarbamoyl)-4-phenylphenyl]methyl}piperazine-1-carboxylate]: the IC50 on FAAH [4] is more than 10000 nM; at MAGL [5], 100 to 1000 nM; on ABHD6 [6], 1000 to 10000 nM.

Take `O=C(ON1C(=O)CCC1=O)N1CCN(Cc2ccc(-c3ccccc3)cc2C(=O)N2CCCC2)CC1` [Example 191, 2,5-Dioxopyrrolidin-1-yl 4-{[4-phenyl-2-(pyrrolidine-1-carbonyl)phenyl]methyl}piperazine-1-carboxylate]: the values for the half-inhibitory concentration (IC50) on FAAH [4], at MAGL [5] and at ABHD6 [6] were more than 10000 nM, 100 to 1000 nM and 1000 to 10000 nM, respectively.

The values above are taken from patent publication US9567302B2, “Carbamate compounds and of making and using same” (Abide Therapeutics, Inc., priority 2012, dated 2017).
